Results: article PMC11483378, “Triazole-Based Thiamine Analogues as Inhibitors of Thiamine Pyrophosphate-Dependent Enzymes: 1,3-Dicarboxylate for Metal Binding” (ACS Omega, 2024)

System: TPP-dependent enzymes
Experiment: Inhibition / relative affinity across the TPP-dependent enzymes (PDH E1, PDC, PO, OGDH E1)
Format: biochemical
Settings: comparison of relative affinities
Excerpt: The different biochemical reactions catalyzed, preferred substrates (Table S1), and primary sequences reflect the structurally and functionally diverse members of the family. […] However, as the inhibitors are TPP-competitive, what really matters is the affinity of each inhibitor relative to the affinity of TPP for that particular enzyme.

SMILES	affinities, fold lower than those of 14b
Cc1ncc(Cn2cc(CCCCC(=O)[O-])nn2)c(N)n1.[K+] [16b]	approximately 3 fold
COC(=O)C(CCCc1cn(Cc2cnc(C)nc2N)nn1)C(=O)OC [13b]	approximately 3 fold
